Key:
[1] = tested on: AMP kinase; assay: Phosphorylation of AMPK by β-lapachone in HepG2 cells; format: cell-based, Human; conditions: 10 μM, 30 min to 6 hr
Description: This example was carried out to confirm whether β-lapachone (Compound 1) has effects on phosphorylation of AMPK and ACC, which are intracellular energy-regulating proteins. In order to examine phosphorylation of AMP kinase and ACC (acetyl-CoA carboxylase) by β-lapachone, HepG2 cells (Human hepatocellular liver carcinoma cell line) were seeded onto a 6-well plate at a density of 1×10^5 cells per well, and cultured in a RPMI+10% FBS medium. After growing the cells for 24 hours, the culture medium was replaced with a serum-free RPMI medium, and cells were treated with β-lapachone (10 μM) for 30 min, 1 hr, 2 hr, 4 hr and 6 hr, respectively, in combination with a control (DMSO). Anti-ACC and Anti-pS79-ACC were used in order to observe phosphorylated ACC, whereas Anti-AMPK and Anti-pT172-AMPK were used in order to observe phosphorylated AMP kinase, respectively.

[2] = tested on: AMPK and ACC; assay: Phosphorylation of AMPK & ACC in DIO C57BL/6 mice (Western blot); format: in vivo; conditions: 50 mg/kg daily oral
Description: In order to investigate anti-obesity effects of β-lapachone, β-lapachone was administered daily to diet-induced obesity (DIO) mice at a dose of 50 mg/kg via an oral route, and effects of β-lapachone on phosphorylation of AMPK and ACC, which play an important role in energy metabolism and lipogenesis in the liver and gonadal adipose tissues, were examined. […] Phosphorylated AMPK is believed to activate metabolism associated with energy. Whereas, it is believed that ACC, which is affected by activation of AMPK, is phosphorylated and lipogenic activity thereof is then inhibited, which will then exert some effects on lipid metabolism including inhibition of obesity.

[3] = tested on: mRNAs of PGC1α, NRF1, mtTFA, COX 4 and 7; assay: Gene expression of proteins involved in mitochondrial biogenesis in DIO mice; format: in vivo, C57BL/6 mice; conditions: 50 mg/kg daily oral, liver and gonadal adipose tissues, vs control group
Description: β-lapachone was administered daily to diet-induced obesity (DIO) mice at a dose of 50 mg/kg via an oral route, and levels of mRNAs of peroxisome proliferator-activated receptor coactivator alpha 1 (PGC1α) (23,24), nuclear respiratory factor 1 (NRF1) (25-27), mitochondrial transcription factor (mtTFA) (25-27), and cytochrome c oxidase (COX) 4 and 7 (28,29) in the liver and gonadal adipose tissues were confirmed by real-time quantitative PCR. Proteins shown in FIG. 10 are representative enzymes responsible for regulation of biogenesis of mitochondria which plays a critical role in biosynthesis of energy in cells, and are also known to be involved in regulation of various physiological events.

[4] = tested on: transcripts of Sirtuin (SIRT) genes; assay: Expression of SIRT-related transcripts in DIO mice; format: in vivo, C57BL/6 mice; conditions: 50 mg/kg daily oral, gonadal adipose tissues, days 7, 28 and 56
Description: β-lapachone was administered daily to diet-induced obesity (DIO) mice at a dose of 50 mg/kg via an oral route, and levels of transcripts of Sirtuin (SIRT) (36,37) genes in gonadal adipose tissues were measured on days 7, 28 and 56 of administration, respectively, using real-time quantitative PCR. Referring to SIRT-related transcripts shown in FIG. 12, there are known 7 species of transcripts in humans.

[5] = tested on: diet-induced obesity (DIO) C57BL/6 mice; assay: Body weight, dietary intake, fat, blood parameters and histology in diet-induced obesity (DIO) C57BL/6 mice; format: in vivo
From the text: FIGS. 16A through 16C show whole laparotomized states of animals after administration of β-lapachone to DIO C57BL/6 mice for 56 days and results of oil red O staining and EM examination on fat accumulation in liver tissues. […] In order to confirm improvement in condition of fatty liver in FIG. 16, accumulated fat in the liver was stained using oil red O staining and as a result, it was confirmed that fat has diminished by 90% or more, as compared to a control group.
Referring to FIG. 17, after daily administration of β-lapachone to DIO C57BL/6 mice at a dose of 50 mg/kg via an oral route, animals were laparotomized on day 56 of β-lapachone administration and perilipin staining was performed on gonadal adipose tissues.
Referring to FIG. 19, after daily administration of β-lapachone to DIO C57BL/6 mice at a dose of 50 mg/kg via an oral route, H&E staining of brown adipose tissues was performed on day 56 of administration.

[6] = tested on: DIO C57BL/6 mice; assay: Spontaneous locomotor activity in DIO C57BL/6 mice; format: in vivo; conditions: 3 hours after administration, measured for 7 hours, vs vehicle and control groups
Description: β-lapachone was administered to DIO C57BL/6 mice, and 3 hours later, spontaneous locomotor activity was measured using Versa MAX Activity Monitors & Analyzer (AccuSan Instruments, Columbus, Ohio). The monitor used to measure motion of animals was a 41 cm×41 cm Plexiglas chamber (height: 30 cm) equipped with infrared rays at intervals of 2.5 cm along the x- and y-axes, respectively, whereby 16 scanning lines are respectively arranged on front/rear and right/left sides of the chamber. In order to distinguish between spontaneous locomotor and stereotypic/grooming behavior, animal activity was measured by taking continuous interference of two different scanning lines caused by mice as an effective determination standard. A β-lapachone-administered group, a vehicle-administered group and a control group were respectively placed in each measuring apparatus, and activity and motion of animals were measured for 7 hours. For acclimation of animal to new environment, mice were placed in the apparatus 2 hours prior to measurement.

[7] = DIO C57BL/6 mice, 56 days, vs control group
[8] = DIO mice, 50 mg/kg daily oral, day 56
[9] = DIO mice, 50 mg/kg daily oral, days 3, 7, 14, 28 and 56

SMILES: CC1(C)CCC2=C(O1)c1ccccc1C(=O)C2=O [Compound 1, β-Lapachone]
- phosphorylation of AMP kinase (Anti-pT172-AMPK), onset [1]: could be observed from the initial time (30 min)
- phosphorylation of AMP kinase, duration of effect [1]: lasted up to 6 hours
- phosphorylation of AMPK and ACC in the gonadal and liver tissues [2]: has an effect on phosphorylation of AMPK and ACC
- COX 4 mRNA level [3]: increased levels of mRNAs
- COX 7 mRNA level [3]: increased levels of mRNAs
- NRF1 mRNA level [3]: increased levels of mRNAs
- PGC1α mRNA level [3]: increased levels of mRNAs
- mtTFA mRNA level [3]: increased levels of mRNAs
- SIRT2 transcript level [4]: did not exhibit any noticeable difference
- SIRT3 transcript level [4]: significantly increased
- SIRT5 transcript level [4]: did not exhibit any noticeable difference
- SIRT6 transcript level [4]: significantly increased
- SIRT7 transcript level [4]: did not exhibit any noticeable difference
- SITR1 transcript level [4]: significantly increased
- visceral fat and body weight (laparotomized state) ([5]; DIO C57BL/6 mice, 56 days): conspicuous decreases in visceral fat and body weight
- EM examination on liver tissues: fat vacuoles and glycogen stores [5, 7]: remarkably decreased fat vacuoles and glycogen stores
- EM examination on liver tissues: mitochondrial numbers [5, 7]: significant increases in mitochondrial numbers
- decrease of accumulated fat in the liver (oil red O staining) [5, 7]: ≥ 90%
- weight changes in various organs [5, 7]: significant changes in weight of tissues
- body weight ([5]; DIO mice on high-fat diet, 50 mg/kg daily oral, 56 days, vs control group): continuous weight loss for 56 days
- dietary intake ([5]; DIO mice, 50 mg/kg daily oral, 56 days): decreases in dietary intake for first two weeks
- size of adipocytes in brown adipose tissue (EM examination) [5, 8]: remarkably decreased
- size of adipocytes in brown adipose tissues (H&E staining) [5, 8]: remarkably decreased
- size of adipocytes in gonadal adipose tissues (perilipin staining) [5, 8]: remarkably decreased
- blood fat and glucose levels [5, 9]: significantly improved
- blood level of resistin [5, 9]: significantly improved
- insulin resistance and leptin resistance [5, 9]: also improved
- spontaneous locomotor activity [6]: significant difference in motion and locomotor activity

— US9066922B2, “Pharmaceutical composition for the treatment or prevention of diseases involving obesity, diabetes, metabolic syndrome, neuro-degenerative diseases and mitochondria dysfunction diseases” (MD BIOALPHA CO., LTD., priority 2005, dated 2015)
